In article PMC8626775, “Anti-schistosomal activities of quinoxaline-containing compounds: From hit identification to lead optimisation” (European Journal of Medicinal Chemistry, 2021):
Several values for one entry are separate records, joined by “and”; a condition that tells them apart may be missing. Identical values can stand only once. Entries after “also recorded” stand apart in the source; their conditions may differ. Like-named read-outs stand apart in the source and are kept apart here.

Legend:
[1] = test system: S. mansoni schistosomula; assay: S. mansoni schistosomula high-throughput phenotype and motility screen (Roboworm), 72 h; format: cell-based, Schistosoma mansoni; conditions: for EC50: Schistosoma mansoni
Experimental: Cercariae derived from the NMRI ([…]) Puerto Rican strain (PR-1) of S. mansoni were shed from two Biomphalaria glabrata strains, the NMRI albino and pigmented outbred strains, under intensified lighting conditions (1 h of incubation at 26 °C). Cercariae were then mechanically transformed into schistosomula as previously described.
High-throughput screening (HTS) of selected compounds was conducted as previously described. Briefly, newly transformed schistosomula were distributed in a 384-well tissue culture plate (PerkinElmer, cat 6007460, seeding density of 120 parasites/well). Each compound (at a single concentration or two-fold titrations) was transferred into individual wells alongside the positive and negative controls (AUR at 10 μM final concentration in 0.625% DMSO and 0.625% DMSO, respectively). Schistosomula/compound co-cultures were then incubated at 37 °C for 72 h in a humidified atmosphere containing 5% CO2. Following the co-culture period, automatic assessment of compound-induced schistosomula motility and phenotypic changes were conducted with the high-content imaging platform Roboworm using the image analysis model previously described by Paveley et al..

[2] = test system: S. mansoni adult worms; assay: S. mansoni adult worm motility screen (WormassayGP2), 72 h; format: cell-based, Schistosoma mansoni; conditions: for EC50: Schistosoma mansoni
Text: Mice (Mus musculus HsdOLa:TO - Tuck Ordinary; Envigo, UK) were used for the mammalian-specific propagation of the S. mansoni life cycle. Experimental animals were infected with 4000 or 180 S. mansoni cercariae/mouse and perfused three- or seven-weeks post-infection to obtain S. mansoni juvenile or adult worms, respectively. Preparation steps following perfusion have been described previously. Briefly, the parasite material was washed three times with pre-warmed adult worm media (DMEM (Gibco, Paisley, UK) supplemented with 10% (v/v) Fetal Calf Serum (FCS, Gibco, Paisley, UK), 1% (v/v) L-glutamine (Gibco, Paisley, UK) and an antibiotic mixture (150 Units/ml penicillin and 150 μg/ml streptomycin; Gibco, UK)) to remove residual host contamination and incubated in a humidified environment containing 5% CO2 at 37 °C for at least 1 h.
For the evaluation of anti-schistosomal activity on the adult stage of the parasite, 7-wk old worms were transferred into 48 well tissue culture plates (1–3 worm pairs/well, in duplicate). […] DMSO (0.5%) and praziquantel (10 μM in 0.5% DMSO) were also included as negative and positive control treatments. Treated adult worms were incubated for 72 h in a humidified environment containing 5% CO2 at 37 °C. Parasite motility after compound treatment was assessed by a digital image processing-based system (WormassayGP2), modified after Wormassay. Following compound-parasite co-incubation, eggs were collected, fixed in formalin (10% v/v formaldehyde) and enumerated aiming to collect further information on any compound-induced effects on parasite fecundity and IVLE production.

[3] = test system: HepG2 cells; assay: HepG2 MTT cytotoxicity assay; conditions: for Toxicity on HepG2 in words: 24 h; for Selectivity Index (SI) Somula: HepG2 CC50 versus schistosomula EC50
Experimental: Initially the cells were handled under sterile conditions and grown at 37 °C in a humidified atmosphere containing 5% CO2. Cytotoxicity was evaluated by way of a 3-(4, 5- dimethylthiazol-2-yl)-2,5-diphenyl tetrazolium bromide (MTT) assay as previously described. The cells were counted in a dual chamber counting slide using the BIORAD TC-10 Automated cell counter, seeded in a 96-well plate (Fisher Scientific, Loughborough, UK) at a density of 2 × 10^4 cells/well and incubated in an atmosphere of 5% CO2 at 37 °C. […] The absorbance readings (at 570 nm) of the soluble formazan crystals were recorded using PolarStar Omega plate reader (BMG-Labtech). […] The latter was used to calculate the selectivity index (SI) of the compounds presented herein.

[4] = test system: adult S. japonicum male worms; assay: In vitro screening of S. japonicum adults at 100 nM (WormAssay motility, descriptors, severity score); format: cell-based, Schistosoma japonicum; set-up: key to DESCRIPTORS 48 h / DESCRIPTORS 72 h: Dark = dark; S = Slow; S-uncoord = uncoordinated slow movements; O-uncoord = uncoordinated fast movements; On sides = male worms are not adhering to dish with ventral sucker; Shrunk = worms are not flexing and are smaller than usual; Teg damage = outer surface (tegument of the worm) is damaged; Deg= degenerating; D = Dead; conditions: for Effect on S. japonicum adult male worms: 5, 24, 48 and 72 h; for SEVERITY SCORES 5 h / SEVERITY SCORES 24 h / SEVERITY SCORES 48 h / SEVERITY SCORES 72 h: max = 4, one line per replicate
Experimental: (§1) For each species, parasite recovery involved reverse perfusion of the hepatic portal and mesenteric system using DMEM (Fisher Scientific). Parasites were washed six times with Basch 169 medium supplemented with 100 U/ml penicillin and 100 μg/ml streptomycin before manually distributing approximately 5 males per well (on occasion 1 or 2 females might also be present) of a 24-well plate (Corning Costar 3524). […] The next morning, a final concentration of 100 nM compound (in 1 μL DMSO) was added to each well and the final volume made up to 2 ml with Basch 169 medium supplemented with antibiotics and FBS. Each compound was tested in triplicate (except for some instances tested in duplicate). […] The phenotypic characterisation of compound effects focused on male worms due to the greater range of their motility characteristics that include flexing, bending, stretching, sucker walking and adherence, compared to the more sedentary female worms. In addition to descriptors, WormAssay, as adapted for the schistosome, was used to measure average worm motility per well [72, 73].

[5] = test system: Adult S. haematobium worms; assay: In vitro screening of S. haematobium adults at 100 nM (WormAssay motility, descriptors, severity score); format: cell-based, Schistosoma haematobium
Experimental: as §1

[6] = 72 h, Table 2, average of phenotype and motility EC50, 72 h, read-out: Activity on schistosomula (EC50, μM - 72 h) Average
[7] = 72 h, Table 2, motility, 72 h, three replicate titrations (0.313–10 μM), read-out: Activity on schistosomula (EC50, μM - 72 h) M
[8] = 72 h, Table 2, phenotype, 72 h, three replicate titrations (0.313–10 μM), read-out: Activity on schistosomula (EC50, μM - 72 h) P
[9] = Table 5, Series C, read-out: Anti-schistosomal activity EC50 Schistosomula (μM) Motility
[10] = Table 5, Series C, read-out: Anti-schistosomal activity EC50 Schistosomula (μM) Phenotype
[11] = Table 2, 72 h, titrations 0.0095–5 μM, WormassayGP2, read-out: Activity on adult worms (EC50, μM - 72 h) Motility
[12] = Table 4, Series A, read-out: Anti-schistosomal activity EC50 Schistosomula (μM) Motility
[13] = Table 4, Series A, read-out: Anti-schistosomal activity EC50 Schistosomula (μM) Phenotype
[14] = Table 4, Series A, read-out: Anti-schistosomal activity EC50 Adult (nM) Motility
[15] = S. japonicum, one line per replicate
[16] = 72 h, read-out: EC50 on schistosomula (bounds and ranges given)
[17] = 72 h, Table 1, 72 h, two dose response titrations (0.313–10 μM), 95% CI in brackets, read-out: Activity on schistosomula (EC50, μM - 72 h) Motility
[18] = 72 h, Table 1, 72 h, two dose response titrations (0.313–10 μM), 95% CI in brackets, read-out: Activity on schistosomula (EC50, μM - 72 h) Phenotype
[19] = 72 h, Table 1, mean of phenotype and motility EC50, 72 h, read-out: Activity on schistosomula (EC50, μM - 72 h) Average

| SMILES | EC50 [1, 6] [µM] | EC50 [1, 7] [µM] | EC50 [1, 8] [µM] | EC50 [2, 11] [nM] | Selectivity Index (SI) Somula [3] | EC50 [1, 12] [µM] | EC50 [1, 13] [µM] | EC50 [2, 14] [nM] | Effect on S. japonicum adult male worms [4] | SEVERITY SCORES 5 h ([4]; S. japonicum) | SEVERITY SCORES 24 h ([4]; S. japonicum, 24 h) | SEVERITY SCORES 48 h ([4]; S. japonicum) | SEVERITY SCORES 72 h ([4]; S. japonicum) | also measured |
| --- | --- | --- | --- | --- | --- | --- | --- | --- | --- | --- | --- | --- | --- | --- |
| CCCCCC(=O)Nc1ccc2nc(Nc3ccc(Cl)c(Cl)c3)c(Nc3ccc(Cl)c(Cl)c3)nc2c1 [Compound 22d, N-(2,3-bis((3,4-dichlorophenyl)amino)quinoxalin-6-yl)hexanamide] | 1.41 | 1.8 | 1.02 | 318 | 1.72 | – | – | – | – | – | – | – | – | EC50 [1, 9]: 1.8 µM; EC50 [1, 10]: 1.02 µM; EC50 ([2]; Table 5, Series C, read-out: Anti-schistosomal activity EC50 Adult (nM) Motility): 318 nM; Toxicity on HepG2 in words [3]: low toxicity; Selectivity Index (SI) Adult worms ([3]; HepG2 CC50 versus adult worm EC50): 7.65 |
| O=[N+]([O-])c1ccc2nc(Nc3ccc(C(F)(F)F)cc3)c(Nc3ccc(C(F)(F)F)cc3)nc2c1 [Compound 31, 6-nitro-N2, N3-bis(4-(trifluoromethyl)phenyl)quinoxaline-2,3-diamine] | 0.31 | 0.28 | 0.34 | 7.7 | – | 0.28 | 0.34 | 7.7 | essentially lethal | 0 | 0 | 4 | 4 | Onset time on S. japonicum [4]: ≤ 24 h; DESCRIPTORS 24 h ([4]; S. japonicum, 24 h, one line per replicate): Dark, S, on sides; DESCRIPTORS 48 h [4, 15]: Dying, deg; DESCRIPTORS 72 h [4, 15]: Dying, D; Onset time on S. haematobium [5]: ≤ 24 h; Effect on S. haematobium adult worms ([5]; 5, 24, 48 and 72 h): best activity; SEVERITY SCORES 5 h ([5]; S. haematobium, 5 h, max = 4, one line per replicate): 0; SEVERITY SCORES 24 h ([5]; S. haematobium, 24 h, max = 4, one line per replicate): 2; DESCRIPTORS 24 h ([5]; S. haematobium, 24 h, one line per replicate): S, on sides; also recorded: S, onsides; SEVERITY SCORES 48 h ([5]; S. haematobium, 48 h, max = 4, one line per replicate): 2; DESCRIPTORS 48 h ([5]; S. haematobium, 48 h, one line per replicate): S, on sides; also recorded: S, onsides; SEVERITY SCORES 72 h ([5]; S. haematobium, 72 h, max = 4, one line per replicate): 3; DESCRIPTORS 72 h ([5]; S. haematobium, 72 h, one line per replicate): S, dark on sides |
| O=[N+]([O-])c1ccc2nc(Nc3ccc(Cl)cc3)c(Nc3ccc(Cl)cc3)nc2c1 [Compound 26, N^2, N^3-bis(4-chlorophenyl)-6-nitroquinoxaline-2,3-diamine] | 0.41 | 0.39 | 0.42 | 20.3 | – | 0.39 | 0.42 | 20.3 | decreased motility starting at 48 h | 0 | 0 | 1 | 2 and 1 | DESCRIPTORS 48 h [4, 15]: S; DESCRIPTORS 72 h [4, 15]: S, on sides and S |
| COc1ccc(Nc2nc3ccc([N+](=O)[O-])cc3nc2Nc2ccc(OC)c(C(F)(F)F)c2)cc1C(F)(F)F [Compound 35, N2, N3-bis(4-methoxy-3-(trifluoromethyl)phenyl)-6-nitroquinoxaline-2,3-diamine] | 0.66 | 0.69 | 0.63 | 44 | – | 0.69 | 0.63 | 44 | no appreciable activity | 0 | 0 | 0 | 0 | – |
| Nc1ccc2nc(Nc3ccc(Cl)c(Cl)c3)c(Nc3ccc(Cl)c(Cl)c3)nc2c1 [Compound 22a, N^2, N^3-bis(3,4-dichlorophenyl)quinoxaline-2,3,6-triamine] | 3.38 | 3.25 | 3.51 | – | – | – | – | – | – | – | – | – | – | EC50 [1, 16]: > 2 µM; Toxicity on HepG2 in words [3]: low toxicity |
| Cc1ccc(Nc2nc3ccccc3nc2Nc2ccc(C)c(C)c2)cc1C [Compound 16] | – | – | – | – | – | – | – | – | – | – | – | – | – | Activity on schistosomula in the primary screen at 10 μM ([1]; 72 h): retained activity; EC50 [1, 17]: 3.69 µM; EC50 [1, 18]: 5.42 µM; EC50 [1, 19]: 4.55 µM; Effect on adult worm motility at 12.5 and 6.25 μM [2]: particularly active |
| O=C(Nc1ccc2nc(Nc3ccc(Cl)c(Cl)c3)c(Nc3ccc(Cl)c(Cl)c3)nc2c1)c1ccco1 [Compound 22f, N-(2,3-bis((3,4-dichlorophenyl)amino)quinoxalin-6-yl)furan-2-carboxamide] | 1.95 | 2 | 1.91 | – | 2.91 | – | – | – | – | – | – | – | – | EC50 [1, 9]: 2 µM; EC50 [1, 10]: 1.91 µM |
| O=[N+]([O-])c1ccc2nc(NCc3ccccc3)c(NCc3ccccc3)nc2c1 [Compound 36, N2, N3-dibenzyl-6-nitroquinoxaline-2,3-diamine] | 2.91 | 2.64 | 3.19 | – | 1.74 | – | – | – | – | – | – | – | – | EC50 [1, 16]: > 2 µM; EC50 ([1]; Table 3, read-out: Anti-schistosomal activity EC50 (μM) Schistosomula Motility): 2.64 µM; EC50 ([1]; Table 3, read-out: Anti-schistosomal activity EC50 (μM) Schistosomula Phenotype): 3.19 µM |
| Cc1cccc(Nc2nc3ccc([N+](=O)[O-])cc3nc2Nc2cccc(C)c2)c1 [Compound 20] | – | – | – | – | – | – | – | – | – | – | – | – | – | Activity on schistosomula in the primary screen at 10 μM ([1]; 72 h): retained activity; EC50 [1, 17]: 1.23 µM; EC50 [1, 18]: 1.62 µM; EC50 [1, 19]: 1.42 µM; Effect on adult worm motility at 12.5 and 6.25 μM [2]: particularly active |
